Measurements published in patent publication US12577231B2, “Androgen receptor PROTACS” (GlaxoSmithKline Intellectual Property Development Limited, priority 2023, dated 2026).

Biological target: T1, Androgen Receptor dual T878A/L702H mutant protein (Homo sapiens, UniProt P10275, L702H/T878A)
T1 construct: host or cells: MDA-PCa-2b
T1 sequence (P10275 1-920 L702H/T878A): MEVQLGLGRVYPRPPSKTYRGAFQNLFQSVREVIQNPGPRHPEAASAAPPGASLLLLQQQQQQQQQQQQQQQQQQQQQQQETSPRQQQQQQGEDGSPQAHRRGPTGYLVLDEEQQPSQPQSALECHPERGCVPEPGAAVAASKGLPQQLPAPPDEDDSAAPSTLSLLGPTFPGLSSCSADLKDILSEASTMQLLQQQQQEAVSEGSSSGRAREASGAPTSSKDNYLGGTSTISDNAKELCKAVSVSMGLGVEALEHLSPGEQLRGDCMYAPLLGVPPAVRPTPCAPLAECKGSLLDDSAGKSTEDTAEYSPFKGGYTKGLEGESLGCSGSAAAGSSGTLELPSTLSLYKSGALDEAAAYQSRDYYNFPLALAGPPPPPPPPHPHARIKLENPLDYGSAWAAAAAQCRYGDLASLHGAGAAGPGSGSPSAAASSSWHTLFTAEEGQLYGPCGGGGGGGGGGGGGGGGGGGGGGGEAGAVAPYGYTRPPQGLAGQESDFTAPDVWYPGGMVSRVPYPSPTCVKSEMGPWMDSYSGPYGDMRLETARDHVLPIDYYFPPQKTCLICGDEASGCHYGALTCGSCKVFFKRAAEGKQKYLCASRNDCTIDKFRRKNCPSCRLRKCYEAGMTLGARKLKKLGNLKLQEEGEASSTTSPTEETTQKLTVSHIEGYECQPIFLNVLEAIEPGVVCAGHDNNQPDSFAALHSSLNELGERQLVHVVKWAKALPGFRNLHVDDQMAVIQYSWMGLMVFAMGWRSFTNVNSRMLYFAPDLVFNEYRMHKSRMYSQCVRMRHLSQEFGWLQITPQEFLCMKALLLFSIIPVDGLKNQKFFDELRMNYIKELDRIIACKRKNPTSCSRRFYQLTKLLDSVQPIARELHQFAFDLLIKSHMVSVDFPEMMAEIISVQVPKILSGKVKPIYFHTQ
Experiment: Dual Mutant (T878A/L702H) Androgen Receptor Degradation Assay (HTRF, MDA-PCa-2b cells)
Type: cell-based
Conditions: 18 h, 18 h incubation, read-out: mean asymptote max
Outline: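 PROTACs tested as 11-point, 3-fold dilutions on 10,000 cells for 18 h at 37 °C. Remaining AR read by HTRF (665/620 nm ratio) after lysis, normalised to DMSO-treated cells (0%) and cell-free medium (100%). Relative DC50 from 4-parameter fit inflection, absolute DC50 interpolated at 50% degradation; Dmax is maximum observed degradation.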

Dmax [%]	Structure (SMILES)
≥ 50	CC1(C)[C@H](NC(=O)c2ccc(N3CCC(CN4CCC(n5ccc6c(N7CCC(=O)NC7=O)cccc65)CC4)CC3)c(F)c2)C(C)(C)[C@H]1Oc1ccc(C#N)c2ncccc12 [Example 31, N-((1r,3r)-3-((8-Cyanoquinolin-5-yl)oxy)-2,2,4,4-tetramethylcyclobutyl)-4-(4-((4-(4-(2,4-dioxotetrahydropyrimidin-1(2H)-yl)-1H-indol-1-yl)piperidin-1-yl)methyl)piperidin-1-yl)-3-fluorobenzamide]
≥ 50	CC1(C)[C@H](NC(=O)c2ccc(N3CCC(CN4CCC(n5ncc6c(N7CCC(=O)NC7=O)nccc65)CC4)CC3)c(F)c2)C(C)(C)[C@H]1Oc1ccc(C#N)c2ncccc12 [Example 39, N-((1r,3r)-3-((8-Cyanoquinolin-5-yl)oxy)-2,2,4,4-tetramethylcyclobutyl)-4-(4-((4-(4-(2,4-dioxotetrahydropyrimidin-1(2H)-yl)-1H-pyrazolo[4,3-c]pyridin-1-yl)piperidin-1-yl)methyl)piperidin-1-yl)-3-fluorobenzamide]
≥ 50	COc1cc(O[C@H]2C(C)(C)[C@H](NC(=O)c3ccc(N4CCC(CN5CCC(n6ccc7c(N8CCC(=O)NC8=O)cccc76)CC5)CC4)cc3)C2(C)C)ccc1C#N [Example 16, N-((1r,3r)-3-(4-Cyano-3-methoxyphenoxy)-2,2,4,4-tetramethylcyclobutyl)-4-(4-((4-(4-(2,4-dioxotetrahydropyrimidin-1(2H)-yl)-1H-indol-1-yl)piperidin-1-yl)methyl)piperidin-1-yl)benzamide]
≥ 50	CC1(C)[C@H](NC(=O)c2ccc(N3CCC(CN4CCC(n5ncc6c(N7CCC(=O)NC7=O)cccc65)CC4)CC3)c(F)c2)C(C)(C)[C@H]1Oc1ccc(C#N)c2c1CCCO2 [Example 8, N-((1r,3r)-3-((8-Cyanochroman-5-yl)oxy)-2,2,4,4-tetramethylcyclobutyl)-4-(4-((4-(4-(2,4-dioxotetrahydropyrimidin-1(2H)-yl)-1H-indazol-1-yl)piperidin-1-yl)methyl)piperidin-1-yl)-3-fluorobenzamide]
≥ 50	COc1cc(O[C@H]2C(C)(C)[C@H](NC(=O)c3ccc(N4CCC(CN5CC[C@@H](n6ncc7c(N8CCC(=O)NC8=O)cccc76)[C@@H](F)C5)CC4)c(F)c3)C2(C)C)ccc1C#N [Example 27, N-((1r,3r)-3-(4-Cyano-3-methoxyphenoxy)-2,2,4,4-tetramethylcyclobutyl)-4-(4-(((3,4R)-4-(4-(2,4-dioxotetrahydropyrimidin-1(2H)-yl)-1H-indazol-1-yl)-3-fluoropiperidin-1-yl)methyl)piperidin-1-yl)-3-fluorobenzamide]
≥ 50	CC1(C)[C@H](NC(=O)c2ccc(N3CCC(CN4CCC(n5ccc6c(N7CCC(=O)NC7=O)c(F)ccc65)CC4)CC3)c(F)c2)C(C)(C)[C@H]1Oc1ccc(C#N)c2ncccc12 [Example 51, N-((1r,3r)-3-((8-Cyanoquinolin-5-yl)oxy)-2,2,4,4-tetramethylcyclobutyl)-4-(4-((4-(4-(2,4-dioxotetrahydropyrimidin-1(2H)-yl)-5-fluoro-1H-indol-1-yl)piperidin-1-yl)methyl)piperidin-1-yl)-3-fluorobenzamide]
≥ 50	CC1(C)[C@H](NC(=O)c2ccc(N3CCC(CN4CCC(n5ccc6c(N7CCC(=O)NC7=O)ncnc65)CC4)CC3)cc2)C(C)(C)[C@H]1Oc1ccc(C#N)c2ncccc12 [Example 28, N-((1r,3r)-3-((8-Cyanoquinolin-5-yl)oxy)-2,2,4,4-tetramethylcyclobutyl)-4-(4-((4-(4-(2,4-dioxotetrahydropyrimidin-1(2H)-yl)-7H-pyrrolo[2,3-d]pyrimidin-7-yl)piperidin-1-yl)methyl)piperidin-1-yl)benzamide]
≥ 50	CC1(C)[C@H](NC(=O)c2ccc(N3CCC(O)(CN4CCC(n5ncc6c(N7CCC(=O)NC7=O)cccc65)CC4)CC3)c(F)c2)C(C)(C)[C@H]1Oc1ccc(C#N)c2ncccc12 [Example 48, N-((1r,3r)-3-((8-Cyanoquinolin-5-yl)oxy)-2,2,4,4-tetramethylcyclobutyl)-4-(4-((4-(4-(2,4-dioxotetrahydropyrimidin-1(2H)-yl)-1H-indazol-1-yl)piperidin-1-yl)methyl)-4-hydroxypiperidin-1-yl)-3-fluorobenzamide]
≥ 50	CC1(C)[C@H](NC(=O)c2ccc(N3CC[C@@H](CN4CCC(n5ncc6c(N7CCC(=O)NC7=O)cccc65)CC4)C3)c(F)c2)C(C)(C)[C@H]1Oc1ccc(C#N)c2ncccc12 [Example 33, N-((1r,3S)-3-((8-Cyanoquinolin-5-yl)oxy)-2,2,4,4-tetramethylcyclobutyl)-4-((S)-3-((4-(4-(2,4-dioxotetrahydropyrimidin-1(2H)-yl)-1H-indazol-1-yl)piperidin-1-yl)methyl)pyrrolidin-1-yl)-3-fluorobenzamide]
≥ 50	CC1(C)[C@H](NC(=O)c2ccc(N3CCC(CN4CCC(n5ncc6c(N7CCC(=O)NC7=O)cccc65)CC4)CC3)c(Cl)c2)C(C)(C)[C@H]1Oc1ccc(C#N)c2ncccc12 [Example 44, 3-Chloro-N-((1r,3r)-3-((8-cyanoquinolin-5-yl)oxy)-2,2,4,4-tetramethylcyclobutyl)-4-(4-((4-(4-(2,4-dioxotetrahydropyrimidin-1(2H)-yl)-1H-indazol-1-yl)piperidin-1-yl)methyl)piperidin-1-yl)benzamide]
≥ 50	CC1(C)[C@H](NC(=O)c2ccc(N3CCC(CN4CCC(n5ncc6c(N7CCC(=O)NC7=O)c(F)ccc65)CC4)CC3)c(F)c2)C(C)(C)[C@H]1Oc1ccc(C#N)c(Cl)c1 [Example 13, N-((1r,3r)-3-(3-Chloro-4-cyanophenoxy)-2,2,4,4-tetramethylcyclobutyl)-4-(4-((4-(4-(2,4-dioxotetrahydropyrimidin-1(2H)-yl)-5-fluoro-1H-indazol-1-yl)piperidin-1-yl)methyl)piperidin-1-yl)-3-fluorobenzamide]
≥ 50	CC1(C)[C@H](NC(=O)c2ccc(N3CCC(CN4CCC(n5ncc6c(N7CCC(=O)NC7=O)cc(C(F)(F)F)cc65)CC4)CC3)c(F)c2)C(C)(C)[C@H]1Oc1ccc(C#N)c2ncccc12 [Example 42, N-((1r,3r)-3-((8-Cyanoquinolin-5-yl)oxy)-2,2,4,4-tetramethylcyclobutyl)-4-(4-((4-(4-(2,4-dioxotetrahydropyrimidin-1(2H)-yl)-6-(trifluoromethyl)-1H-indazol-1-yl)piperidin-1-yl)methyl)piperidin-1-yl)-3-fluorobenzamide]
≥ 50	CC1(C)[C@H](NC(=O)c2ccc(N3CCC(CN4CCC(n5ncc6c(N7CCC(=O)NC7=O)ccnc65)CC4)CC3)c(F)c2)C(C)(C)[C@H]1Oc1ccc(C#N)c2ncccc12 [Example 40, N-((1r,3r)-3-((8-Cyanoquinolin-5-yl)oxy)-2,2,4,4-tetramethylcyclobutyl)-4-(4-((4-(4-(2,4-dioxotetrahydropyrimidin-1(2H)-yl)-1H-pyrazolo[3,4-b]pyridin-1-yl)piperidin-1-yl)methyl)piperidin-1-yl)-3-fluorobenzamide]
≥ 50	CC1(C)[C@H](NC(=O)c2ccc(N3CCC(CN4CCC(n5ncc6c(N7CCC(=O)NC7=O)cccc65)CC4)CC3)c(F)c2)C(C)(C)[C@H]1Oc1cnc(C#N)c(Cl)c1 [Example 3, N-((1r,3r)-3-((5-Chloro-6-cyanopyridin-3-yl)oxy)-2,2,4,4-tetramethylcyclobutyl)-4-(4-((4-(4-(2,4-dioxotetrahydropyrimidin-1(2H)-yl)-1H-indazol-1-yl)piperidin-1-yl)methyl)piperidin-1-yl)-3-fluorobenzamide]
